“And” between values parts separate entries of the source, which are not always exact repeats. Identical values can stand only once.
Key:
[1] = system: human osteosarcoma cancer xenograft model SJSA1; assay: Antitumor activity (tumor volume, TGI, regression) in SJSA1 xenograft; format: in vivo, mice; details: for Full Regression / Partial Regression: 10 animals per group
Excerpt: Efficacy data was graphically represented as the mean tumor volume*standard error of the mean (SEM). In addition, tumor volumes of treated groups were presented as percentages of tumor volumes of the control groups (% T/C), using the formula: 100×((T−T0)/(C−C0)), where T represented mean tumor volume of a treated group on a specific day during the experiment, T0 represented mean tumor volume of the same […] group on the first day of treatment; C represented mean tumor volume of a control group on the specific day during the experiment, and C0 represented mean tumor volume of the same […] group on the first day of treatment.
Tumor volume (in cubic millimeters) was calculated using the ellipsoid formula: (D×(d^2))/2, where “D” represents the large diameter of the tumor and “d” represents the small diameter. In some cases, tumor regression and/or percent change in tumor volume was calculated using the formula: ((T−T0)/T0)×100, where ‘T’ represents mean tumor volume of the treated group at a particular day, and ‘T0’ represents mean tumor volume of the same treated group at initiation of treatment.
All dose levels are reported as the actual dosage of Compound A rather than including drug plus polymer.
Female athymic Crl:NU-Foxn1nu mice (10/group), obtained from Charles River Laboratories (Wilmington, Del.) were utilized when they were approximately 10-12 weeks of age and weighed 23-25 g. The health of the mice was assessed daily by gross observation and analyses of blood samples taken from sentinel animals housed on shared shelf racks. All animals were allowed to acclimate and recover from any shipping-related stress for a minimum of 72 hours prior to experimental use. Autoclaved water and irradiated food (5058-ms Pico Lab mouse chow, Purina Mills, Richmond, Ind.) were provided ad libitum, and the animals were maintained on a 12 hour light and dark cycle. Cages, bedding and water bottles were autoclaved before use and changed weekly. All animal experiments were conducted in accordance with the Guide for the Care and Use of Laboratory Animals, local regulations, and protocols approved by the Roche Animal Care and Use Committee in an AAALAC accredited facility.
SJSA cells (ATCC) were maintained in RPMI 1640+10% (v/v) heat-inactivated FBS+i % (v/v) […] L-glutamine. Each mouse received 5×10^6 cells in a 1:1 mixture of phosphate buffered saline and Matrigel in a total volume of 0.2 ml. Cells were implanted subcutaneously in the right flank using a 1 cc syringe and a 26 gauge needle.
Treatment duration was 2-4 weeks. Dates of tumor implant, treatment initiation (study start date), and termination of treatment (study end date) can be found in Table 6 below. The starting tumor volume for this study was about 220 mm^3. Tumor volumes and animal body weights were measured three times per week and animals were monitored for clinical signs daily.

MDM2 mRNA = MDM2 mRNA assay in patient tumor biopsies; format: in vivo, human; details: for MDM2 mRNA Average FCBL: cohort average; for MDM2 mRNA Median FCBL: cohort median; for MDM2 mRNA FCBL: individual patients, tumor biopsy vs baseline
Description: The 10 mg tablets contain hypromellose acetate succinate, mannitol, microcrystalline cellulose, croscarmellose sodium, colloidal silicon dioxide, and magnesium stearate. The film-coat consists of hypromellose, titanium dioxide, talc, triacetin, iron oxide yellow, and iron oxide red. The 50 mg, 200 mg, and 400 mg film coated tablets contain the excipients hypromellose acetate succinate, croscarmellose sodium, colloidal silicon dioxide, and magnesium stearate. The film-coat consists of polyvinyl alcohol, titanium dioxide, polyethylene glycol, talc, iron oxide yellow, iron oxide red, and iron oxide black.
Tumor biopsies were collected at baseline and cycle 1, day 5±2.

[2] = 100 mg/kg QD po 2 on/12 off x 2
[3] = 200 mg/kg (two 100 mg/kg doses 8 hr apart) 1x/wk po

## COc1cc(C(=O)O)ccc1NC(=O)[C@@H]1N[C@@H](CC(C)(C)C)[C@](C#N)(c2ccc(Cl)cc2F)[C@H]1c1cccc(Cl)c1F [Compound A, 4-{[(2R,3S,4R,5S)-4-(4-Chloro-2-fluoro-phenyl)-3-(3-chloro-2-fluoro-phenyl)-4-cyano-5-(2,2-dimethyl-propyl)-pyrrolidine-2-carbonyl]-amino}-3-methoxy-benzoic acid]
[1]; 7.5 mg/kg QD po
  % Inhibition end of study Day: 32: 66%
  % T/C End of Study Day: 32: 34%
  Mean Tumor Volume (mm3) End Study Day: 32: 18.01 mm3
  Full Regression: 0
  Partial Regression: 0
[1]; 15 mg/kg QD po
  % Inhibition end of study Day: 32: 79%
  % T/C End of Study Day: 32: 21%
  Mean Tumor Volume (mm3) End Study Day: 32: 16.42 mm3
  Full Regression: 0
  Partial Regression: 0
[1]; 20 mg/kg QD po 20 on/8 off
  % Inhibition end of study Day: 32: 98%
  % T/C End of Study Day: 32: 2%
  Mean Tumor Volume (mm3) End Study Day: 32: 315.19 mm3
  Full Regression: 0
  Partial Regression: 5
[1]; 30 mg/kg QD po
  % Inhibition end of study Day: 32: regression
  % T/C End of Study Day: 32: −1%
  Average % Regression per Group: 13%
  Mean Tumor Volume (mm3) End Study Day: 32: 19.35 mm3
  Full Regression: 0
  Partial Regression: 7
[1]; 50 mg/kg 1x/wk po
  % Inhibition end of study Day: 32: 57%
  % T/C End of Study Day: 32: 43%
  Mean Tumor Volume (mm3) End Study Day: 32: 22.66 mm3
  Full Regression: 0
  Partial Regression: 0
[1]; 50 mg/kg QD po 2 on/5 off x 4
  % Inhibition end of study Day: 32: 99%
  % T/C End of Study Day: 32: 1%
  Mean Tumor Volume (mm3) End Study Day: 32: 257.29 mm3
  Full Regression: 0
  Partial Regression: 3
[1]; 50 mg/kg QD po 4 on/10 off x 2
  % Inhibition end of study Day: 32: 99%
  % T/C End of Study Day: 32: 1%
  Mean Tumor Volume (mm3) End Study Day: 32: 244.70 mm3
  Full Regression: 0
  Partial Regression: 6
[1]; 80 mg/kg QD po 5 on/23 off
  % Inhibition end of study Day: 32: regression
  % T/C End of Study Day: 32: −2%
  Average % Regression per Group: 35%
  Mean Tumor Volume (mm3) End Study Day: 32: 128.05 mm3
  Full Regression: 2
  Partial Regression: 6
[1]; 100 mg/kg 1x/wk po
  % Inhibition end of study Day: 32: 94%
  % T/C End of Study Day: 32: 6%
  Mean Tumor Volume (mm3) End Study Day: 32: 474.73 mm3
  Full Regression: 0
  Partial Regression: 1
[1]; 100 mg/kg QD po 2 on/5 off x 4
  % Inhibition end of study Day: 32: regression
  % T/C End of Study Day: 32: −2%
  Average % Regression per Group: 47%
  Mean Tumor Volume (mm3) End Study Day: 32: 25.68 mm3
  Full Regression: 0
  Partial Regression: 9
[1]; [2]
  % Inhibition end of study Day: 32: regression
  % T/C End of Study Day: 32: 0%
  Average % Regression per Group: 11%
  Mean Tumor Volume (mm3) End Study Day: 32: 179.88 mm3
  Full Regression: 0
  Partial Regression: 7
[1]; [3]
  % Inhibition end of study Day: 32: regression
  % T/C End of Study Day: 32: −1%
  Average % Regression per Group: 29%
  Mean Tumor Volume (mm3) End Study Day: 32: 158.95 mm3
  Full Regression: 0
  Partial Regression: 7
[1]; 5 day on/23 day off treatment schedule
  growth inhibitory activity (FIG. 1): good growth inhibitory activity
MDM2 mRNA; BM-A1 800 mg bid Qwk × 3
  MDM2 mRNA Average FCBL: 1.2
  MDM2 mRNA Median FCBL: 1.1
  MDM2 mRNA FCBL: 1.0 and 1.4 and 1.1
MDM2 mRNA; BM-A2 1200 mg bid Qwk × 3
  MDM2 mRNA Average FCBL: 1.4
  MDM2 mRNA Median FCBL: 1.3
  MDM2 mRNA FCBL: 1.0 (2×) and 1.8 and 2.1 and 1.3
MDM2 mRNA; BM-B1 400 mg bid × 5 d
  MDM2 mRNA Average FCBL: 8.5
  MDM2 mRNA Median FCBL: 8.7
  MDM2 mRNA FCBL: 5.4 and 3.7 and 12.1 and 12.9
MDM2 mRNA; BM-B2 500 mg bid × 3 d
  MDM2 mRNA Average FCBL: 5.1
  MDM2 mRNA Median FCBL: 1.3
  MDM2 mRNA FCBL: 0.2 and 0.7 and 1.3 and 3.8 and 19.6
MDM2 mRNA; BM-B3 500 mg qd × 5 d
  MDM2 mRNA Average FCBL: 2.4
  MDM2 mRNA Median FCBL: 2.0
  MDM2 mRNA FCBL: 1.5 and 2.5 and 4.2 and 1.2
MDM2 mRNA; doses and schedules of Table 8
  levels of MDM2 mRNA expression in patient's tumors: increase in the levels of MDM2 mRNA expression

— patent US11382892B2, “Method for administration” (Hoffmann-La Roche Inc., priority 2012, dated 2022)
